Results on one compound are retold here after publication PMC12615753, “Glutathione as a taste modulator: molecular mechanisms of interaction with umami and sweet taste receptors” (Food Chemistry: Molecular Sciences, 2025).

The assay has as its target T1, hTAS1R1 H71L/rTAS1R3 (Homo sapiens, UniProt Q7RTX1, H71L).
T1 construct: expressed in transfected cells; host or cells: HEK293T/17 (ATCC CRL-11268)
T1 sequence (Q7RTX1 21-841 H71L): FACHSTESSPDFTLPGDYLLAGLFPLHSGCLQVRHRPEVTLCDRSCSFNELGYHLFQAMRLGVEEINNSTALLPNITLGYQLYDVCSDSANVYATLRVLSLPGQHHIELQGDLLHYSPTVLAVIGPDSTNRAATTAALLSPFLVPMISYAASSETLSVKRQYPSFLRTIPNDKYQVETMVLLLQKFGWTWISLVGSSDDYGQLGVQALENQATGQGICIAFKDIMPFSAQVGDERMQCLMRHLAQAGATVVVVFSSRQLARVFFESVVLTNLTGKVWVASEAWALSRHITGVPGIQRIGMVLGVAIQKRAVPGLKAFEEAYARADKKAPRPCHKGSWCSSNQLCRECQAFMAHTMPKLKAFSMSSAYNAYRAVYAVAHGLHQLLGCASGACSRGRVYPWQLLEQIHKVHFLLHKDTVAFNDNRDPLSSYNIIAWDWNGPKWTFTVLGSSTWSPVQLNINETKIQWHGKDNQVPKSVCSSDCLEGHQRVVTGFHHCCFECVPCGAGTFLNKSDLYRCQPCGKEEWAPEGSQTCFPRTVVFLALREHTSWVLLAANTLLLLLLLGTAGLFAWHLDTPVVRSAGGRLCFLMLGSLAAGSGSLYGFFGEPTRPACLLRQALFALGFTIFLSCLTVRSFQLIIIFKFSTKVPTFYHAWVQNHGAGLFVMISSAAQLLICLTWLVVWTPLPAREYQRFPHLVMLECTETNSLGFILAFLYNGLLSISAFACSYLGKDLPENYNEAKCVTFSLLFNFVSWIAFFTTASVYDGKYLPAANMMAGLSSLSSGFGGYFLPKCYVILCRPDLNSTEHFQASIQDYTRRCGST
T1 sequence (Q923K1 21-858 partner): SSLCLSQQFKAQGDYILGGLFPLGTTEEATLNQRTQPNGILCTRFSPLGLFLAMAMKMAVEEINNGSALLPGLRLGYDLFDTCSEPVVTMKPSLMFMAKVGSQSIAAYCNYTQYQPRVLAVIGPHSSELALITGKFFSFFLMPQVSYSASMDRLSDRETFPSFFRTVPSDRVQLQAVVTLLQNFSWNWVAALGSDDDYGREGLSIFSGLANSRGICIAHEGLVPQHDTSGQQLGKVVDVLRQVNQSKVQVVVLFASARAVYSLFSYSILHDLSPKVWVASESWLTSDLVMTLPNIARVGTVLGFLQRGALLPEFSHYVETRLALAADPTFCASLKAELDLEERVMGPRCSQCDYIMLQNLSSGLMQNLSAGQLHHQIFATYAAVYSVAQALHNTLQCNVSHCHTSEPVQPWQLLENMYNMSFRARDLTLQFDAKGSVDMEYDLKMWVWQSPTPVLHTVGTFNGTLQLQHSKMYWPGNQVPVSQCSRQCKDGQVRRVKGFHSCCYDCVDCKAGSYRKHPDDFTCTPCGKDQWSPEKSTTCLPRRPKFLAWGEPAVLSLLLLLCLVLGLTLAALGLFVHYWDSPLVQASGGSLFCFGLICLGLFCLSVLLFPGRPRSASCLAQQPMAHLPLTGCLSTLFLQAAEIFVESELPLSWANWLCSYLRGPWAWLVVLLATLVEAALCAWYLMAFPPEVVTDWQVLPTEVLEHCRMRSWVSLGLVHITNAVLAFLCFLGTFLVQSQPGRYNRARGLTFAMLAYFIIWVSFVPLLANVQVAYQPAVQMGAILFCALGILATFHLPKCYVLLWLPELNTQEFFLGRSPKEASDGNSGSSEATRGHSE
Put plainly: Calcium assay, hTAS1R1 mutant co-expressed with rTAS1R3. Type of assay: cell-based, rat.

With `N[C@@H](CCC(=O)N[C@@H](CS)C(=O)NCC(=O)O)C(=O)O` [GSH, γ-L-glutamyl-L-cysteinyl-glycine], the EC50 is 2270 ± 123 µM. Besides, the “response to the agonist alone, vs WT” value (H71L) was “significantly increased the initial amplitude”. Moreover, for the setting “H71L, GSH”, the “Max ∆F/F0” value is reported as 1.24 ± 0.0 and the “R1 = mutant EC50/WT EC50” value worked out at 0.9.

One may read the EC50 as the concentration giving half of the maximal effect.
